Laboratory results from PMC10176470, “Engaging a Non-catalytic Cysteine Residue Drives Potent and Selective Inhibition of Caspase-6” (Journal of the American Chemical Society, 2023).

Tests used:
Type in all cases: cell-based
[1] = molecular target: proteins of HEK293T cells transiently overexpressing caspase-6 (Homo sapiens, UniProt P11142); settings: protein HSPA8 (P11142)
[2] = molecular target: proteins of HEK293T cells transiently overexpressing caspase-6 (Homo sapiens, UniProt P22087); settings: exp_ref Probe; protein FBL (P22087); analysis C6
[3] = molecular target: T1, proteins of HEK293T cells transiently overexpressing caspase-6 (Homo sapiens, UniProt P29401)
T1 sequence (P29401 1-623): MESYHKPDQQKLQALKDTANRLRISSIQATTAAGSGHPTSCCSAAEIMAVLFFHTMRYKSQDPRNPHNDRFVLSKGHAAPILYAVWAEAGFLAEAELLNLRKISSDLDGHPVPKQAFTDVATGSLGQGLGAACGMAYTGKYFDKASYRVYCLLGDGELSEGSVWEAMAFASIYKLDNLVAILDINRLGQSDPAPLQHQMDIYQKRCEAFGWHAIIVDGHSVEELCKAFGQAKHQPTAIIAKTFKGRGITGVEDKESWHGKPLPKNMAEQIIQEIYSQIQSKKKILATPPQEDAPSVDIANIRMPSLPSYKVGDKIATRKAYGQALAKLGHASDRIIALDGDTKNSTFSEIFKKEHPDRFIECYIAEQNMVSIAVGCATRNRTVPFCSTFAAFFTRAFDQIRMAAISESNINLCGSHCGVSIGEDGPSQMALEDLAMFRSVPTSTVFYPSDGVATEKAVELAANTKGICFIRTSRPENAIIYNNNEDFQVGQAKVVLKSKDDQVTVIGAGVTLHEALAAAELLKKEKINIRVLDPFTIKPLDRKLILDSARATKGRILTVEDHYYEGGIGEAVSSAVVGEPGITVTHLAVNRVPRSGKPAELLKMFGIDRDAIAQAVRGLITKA

[4] = molecular target: T2, proteins of HEK293T cells transiently overexpressing caspase-6 (Homo sapiens, UniProt P30101); settings: protein PDIA3 (P30101)
T2 sequence (P30101 25-505): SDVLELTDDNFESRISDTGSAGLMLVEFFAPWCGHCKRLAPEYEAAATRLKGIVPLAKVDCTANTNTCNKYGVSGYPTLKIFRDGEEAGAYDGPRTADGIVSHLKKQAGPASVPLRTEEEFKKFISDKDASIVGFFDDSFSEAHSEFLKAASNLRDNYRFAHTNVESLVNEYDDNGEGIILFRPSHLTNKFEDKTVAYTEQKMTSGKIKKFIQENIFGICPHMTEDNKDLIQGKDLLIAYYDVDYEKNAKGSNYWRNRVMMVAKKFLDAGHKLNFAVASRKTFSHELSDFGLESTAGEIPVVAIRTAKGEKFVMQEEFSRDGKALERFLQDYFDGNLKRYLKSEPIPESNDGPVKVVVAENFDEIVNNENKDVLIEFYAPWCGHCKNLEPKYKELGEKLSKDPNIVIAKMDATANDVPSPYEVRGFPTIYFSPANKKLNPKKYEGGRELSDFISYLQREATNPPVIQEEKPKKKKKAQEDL

[5] = molecular target: proteins of HEK293T cells transiently overexpressing caspase-6 (Homo sapiens, UniProt P62913); settings: protein RPL11 (P62913)
[6] = molecular target: proteins of HEK293T cells transiently overexpressing caspase-6 (Homo sapiens, UniProt Q14166); settings: exp_ref Probe; protein TTLL12 (Q14166); analysis C6
[7] = molecular target: proteins of HEK293T cells transiently overexpressing caspase-6 (Homo sapiens, UniProt Q14980); settings: exp_ref Probe; protein NUMA1 (Q14980); analysis C6
[8] = molecular target: proteins of HEK293T cells transiently overexpressing caspase-6 (Homo sapiens, UniProt Q96K37); settings: protein SLC35E1 (Q96K37); exp_ref Probe; analysis C6
[9] = molecular target: T3, proteins of HEK293T cells transiently overexpressing caspase-6 (Homo sapiens, UniProt Q96RQ3)
T3 sequence (Q96RQ3 42-725): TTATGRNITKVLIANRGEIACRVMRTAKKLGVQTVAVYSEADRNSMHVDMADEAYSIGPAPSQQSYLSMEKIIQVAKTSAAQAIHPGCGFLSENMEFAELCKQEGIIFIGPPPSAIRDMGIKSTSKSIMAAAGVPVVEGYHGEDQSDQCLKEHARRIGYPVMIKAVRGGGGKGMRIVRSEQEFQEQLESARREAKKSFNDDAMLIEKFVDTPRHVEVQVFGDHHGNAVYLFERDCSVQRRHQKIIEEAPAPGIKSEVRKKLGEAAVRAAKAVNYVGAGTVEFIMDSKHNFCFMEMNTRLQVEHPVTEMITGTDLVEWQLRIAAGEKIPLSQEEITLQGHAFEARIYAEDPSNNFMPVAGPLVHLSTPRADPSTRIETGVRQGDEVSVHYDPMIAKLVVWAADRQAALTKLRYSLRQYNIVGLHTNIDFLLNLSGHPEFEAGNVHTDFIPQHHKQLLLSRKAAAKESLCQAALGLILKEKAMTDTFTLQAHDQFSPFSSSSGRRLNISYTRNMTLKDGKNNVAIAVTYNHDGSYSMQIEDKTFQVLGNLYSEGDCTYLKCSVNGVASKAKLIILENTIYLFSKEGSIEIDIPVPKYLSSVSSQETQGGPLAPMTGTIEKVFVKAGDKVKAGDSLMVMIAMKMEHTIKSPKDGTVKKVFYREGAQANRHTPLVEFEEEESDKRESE

[10] = molecular target: proteins of HEK293T cells transiently overexpressing caspase-6 (Homo sapiens, UniProt Q9BRX8); settings: Probe; protein FAM213A Q9BRX8
[11] = molecular target: proteins of HEK293T cells transiently overexpressing caspase-6 (Homo sapiens, UniProt Q9Y5B9); settings: Probe; protein SUPT16H Q9Y5B9
Sequence of proteins of HEK293T cells transiently overexpressing caspase-6 (Homo sapiens, UniProt Q9Y5B9) (Q9Y5B9 whole entry): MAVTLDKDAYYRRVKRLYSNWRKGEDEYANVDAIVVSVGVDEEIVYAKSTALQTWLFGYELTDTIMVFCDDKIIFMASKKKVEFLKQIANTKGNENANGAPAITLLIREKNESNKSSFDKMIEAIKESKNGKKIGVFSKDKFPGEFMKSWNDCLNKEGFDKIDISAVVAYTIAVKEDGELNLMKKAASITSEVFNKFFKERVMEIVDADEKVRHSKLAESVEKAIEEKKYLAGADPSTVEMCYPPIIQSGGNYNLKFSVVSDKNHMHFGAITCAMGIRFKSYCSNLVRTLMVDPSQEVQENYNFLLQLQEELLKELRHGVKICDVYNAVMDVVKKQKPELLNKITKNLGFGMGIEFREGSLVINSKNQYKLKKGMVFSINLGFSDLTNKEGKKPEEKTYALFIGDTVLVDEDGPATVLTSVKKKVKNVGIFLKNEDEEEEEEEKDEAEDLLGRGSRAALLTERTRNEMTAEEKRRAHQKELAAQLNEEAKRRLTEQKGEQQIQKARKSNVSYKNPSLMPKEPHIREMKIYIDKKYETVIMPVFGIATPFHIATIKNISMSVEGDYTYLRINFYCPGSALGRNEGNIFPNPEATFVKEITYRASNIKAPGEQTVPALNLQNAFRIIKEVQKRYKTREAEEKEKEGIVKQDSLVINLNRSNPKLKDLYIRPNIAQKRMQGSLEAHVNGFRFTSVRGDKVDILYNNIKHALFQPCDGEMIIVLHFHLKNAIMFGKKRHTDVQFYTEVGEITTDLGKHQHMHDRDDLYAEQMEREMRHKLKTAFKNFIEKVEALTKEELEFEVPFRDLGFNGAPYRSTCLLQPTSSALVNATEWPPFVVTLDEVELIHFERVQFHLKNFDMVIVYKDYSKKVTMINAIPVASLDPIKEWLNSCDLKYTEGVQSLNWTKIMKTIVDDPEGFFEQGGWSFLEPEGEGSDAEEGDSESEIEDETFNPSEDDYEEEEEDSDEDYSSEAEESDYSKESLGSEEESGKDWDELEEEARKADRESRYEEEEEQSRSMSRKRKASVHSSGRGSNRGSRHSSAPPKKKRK

Sequence of proteins of HEK293T cells transiently overexpressing caspase-6 (Homo sapiens, UniProt P11142) (P11142 whole entry): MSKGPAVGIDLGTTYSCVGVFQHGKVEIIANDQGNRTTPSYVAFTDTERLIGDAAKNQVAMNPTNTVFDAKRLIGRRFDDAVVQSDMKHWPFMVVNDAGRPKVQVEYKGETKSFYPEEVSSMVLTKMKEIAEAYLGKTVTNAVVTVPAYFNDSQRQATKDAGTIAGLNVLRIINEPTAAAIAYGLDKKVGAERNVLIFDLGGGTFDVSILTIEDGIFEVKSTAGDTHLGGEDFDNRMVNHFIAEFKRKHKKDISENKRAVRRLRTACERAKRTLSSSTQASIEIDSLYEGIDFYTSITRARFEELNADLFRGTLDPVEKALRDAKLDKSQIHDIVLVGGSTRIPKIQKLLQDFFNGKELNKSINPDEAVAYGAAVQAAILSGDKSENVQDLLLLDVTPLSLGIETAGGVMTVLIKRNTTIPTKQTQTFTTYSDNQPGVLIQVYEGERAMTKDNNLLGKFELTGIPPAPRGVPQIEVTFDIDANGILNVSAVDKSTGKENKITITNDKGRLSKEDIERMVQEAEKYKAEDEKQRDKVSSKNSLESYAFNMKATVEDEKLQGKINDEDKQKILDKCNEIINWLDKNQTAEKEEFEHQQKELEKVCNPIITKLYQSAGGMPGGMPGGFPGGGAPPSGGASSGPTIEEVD
Sequence of proteins of HEK293T cells transiently overexpressing caspase-6 (Homo sapiens, UniProt P22087) (P22087 whole entry): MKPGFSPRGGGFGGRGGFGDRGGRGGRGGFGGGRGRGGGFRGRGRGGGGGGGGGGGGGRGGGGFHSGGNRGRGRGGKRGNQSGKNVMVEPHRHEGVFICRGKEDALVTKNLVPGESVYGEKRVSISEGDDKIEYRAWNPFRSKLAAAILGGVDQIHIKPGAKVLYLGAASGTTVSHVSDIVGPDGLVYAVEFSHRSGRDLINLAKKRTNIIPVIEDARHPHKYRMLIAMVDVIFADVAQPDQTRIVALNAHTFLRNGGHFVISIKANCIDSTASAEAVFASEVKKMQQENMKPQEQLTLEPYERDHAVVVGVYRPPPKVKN
Sequence of proteins of HEK293T cells transiently overexpressing caspase-6 (Homo sapiens, UniProt Q14166) (Q14166 whole entry): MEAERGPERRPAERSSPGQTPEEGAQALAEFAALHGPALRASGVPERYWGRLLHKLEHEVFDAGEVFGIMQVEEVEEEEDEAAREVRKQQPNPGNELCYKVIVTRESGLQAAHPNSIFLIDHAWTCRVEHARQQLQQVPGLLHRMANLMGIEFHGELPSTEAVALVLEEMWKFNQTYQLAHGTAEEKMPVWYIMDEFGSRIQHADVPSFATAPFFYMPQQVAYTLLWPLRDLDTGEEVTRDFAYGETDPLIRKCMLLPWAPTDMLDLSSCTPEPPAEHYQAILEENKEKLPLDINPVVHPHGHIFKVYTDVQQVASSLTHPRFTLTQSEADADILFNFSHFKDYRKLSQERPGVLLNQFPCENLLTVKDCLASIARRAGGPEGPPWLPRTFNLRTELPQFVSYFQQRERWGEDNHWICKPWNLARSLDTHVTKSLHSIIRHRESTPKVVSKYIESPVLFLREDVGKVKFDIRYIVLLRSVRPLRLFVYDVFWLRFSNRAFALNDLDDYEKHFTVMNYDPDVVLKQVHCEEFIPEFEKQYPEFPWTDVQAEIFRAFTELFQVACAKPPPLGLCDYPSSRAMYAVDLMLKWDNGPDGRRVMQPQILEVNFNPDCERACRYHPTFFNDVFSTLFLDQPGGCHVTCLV
Sequence of proteins of HEK293T cells transiently overexpressing caspase-6 (Homo sapiens, UniProt Q14980) (Q14980 whole entry): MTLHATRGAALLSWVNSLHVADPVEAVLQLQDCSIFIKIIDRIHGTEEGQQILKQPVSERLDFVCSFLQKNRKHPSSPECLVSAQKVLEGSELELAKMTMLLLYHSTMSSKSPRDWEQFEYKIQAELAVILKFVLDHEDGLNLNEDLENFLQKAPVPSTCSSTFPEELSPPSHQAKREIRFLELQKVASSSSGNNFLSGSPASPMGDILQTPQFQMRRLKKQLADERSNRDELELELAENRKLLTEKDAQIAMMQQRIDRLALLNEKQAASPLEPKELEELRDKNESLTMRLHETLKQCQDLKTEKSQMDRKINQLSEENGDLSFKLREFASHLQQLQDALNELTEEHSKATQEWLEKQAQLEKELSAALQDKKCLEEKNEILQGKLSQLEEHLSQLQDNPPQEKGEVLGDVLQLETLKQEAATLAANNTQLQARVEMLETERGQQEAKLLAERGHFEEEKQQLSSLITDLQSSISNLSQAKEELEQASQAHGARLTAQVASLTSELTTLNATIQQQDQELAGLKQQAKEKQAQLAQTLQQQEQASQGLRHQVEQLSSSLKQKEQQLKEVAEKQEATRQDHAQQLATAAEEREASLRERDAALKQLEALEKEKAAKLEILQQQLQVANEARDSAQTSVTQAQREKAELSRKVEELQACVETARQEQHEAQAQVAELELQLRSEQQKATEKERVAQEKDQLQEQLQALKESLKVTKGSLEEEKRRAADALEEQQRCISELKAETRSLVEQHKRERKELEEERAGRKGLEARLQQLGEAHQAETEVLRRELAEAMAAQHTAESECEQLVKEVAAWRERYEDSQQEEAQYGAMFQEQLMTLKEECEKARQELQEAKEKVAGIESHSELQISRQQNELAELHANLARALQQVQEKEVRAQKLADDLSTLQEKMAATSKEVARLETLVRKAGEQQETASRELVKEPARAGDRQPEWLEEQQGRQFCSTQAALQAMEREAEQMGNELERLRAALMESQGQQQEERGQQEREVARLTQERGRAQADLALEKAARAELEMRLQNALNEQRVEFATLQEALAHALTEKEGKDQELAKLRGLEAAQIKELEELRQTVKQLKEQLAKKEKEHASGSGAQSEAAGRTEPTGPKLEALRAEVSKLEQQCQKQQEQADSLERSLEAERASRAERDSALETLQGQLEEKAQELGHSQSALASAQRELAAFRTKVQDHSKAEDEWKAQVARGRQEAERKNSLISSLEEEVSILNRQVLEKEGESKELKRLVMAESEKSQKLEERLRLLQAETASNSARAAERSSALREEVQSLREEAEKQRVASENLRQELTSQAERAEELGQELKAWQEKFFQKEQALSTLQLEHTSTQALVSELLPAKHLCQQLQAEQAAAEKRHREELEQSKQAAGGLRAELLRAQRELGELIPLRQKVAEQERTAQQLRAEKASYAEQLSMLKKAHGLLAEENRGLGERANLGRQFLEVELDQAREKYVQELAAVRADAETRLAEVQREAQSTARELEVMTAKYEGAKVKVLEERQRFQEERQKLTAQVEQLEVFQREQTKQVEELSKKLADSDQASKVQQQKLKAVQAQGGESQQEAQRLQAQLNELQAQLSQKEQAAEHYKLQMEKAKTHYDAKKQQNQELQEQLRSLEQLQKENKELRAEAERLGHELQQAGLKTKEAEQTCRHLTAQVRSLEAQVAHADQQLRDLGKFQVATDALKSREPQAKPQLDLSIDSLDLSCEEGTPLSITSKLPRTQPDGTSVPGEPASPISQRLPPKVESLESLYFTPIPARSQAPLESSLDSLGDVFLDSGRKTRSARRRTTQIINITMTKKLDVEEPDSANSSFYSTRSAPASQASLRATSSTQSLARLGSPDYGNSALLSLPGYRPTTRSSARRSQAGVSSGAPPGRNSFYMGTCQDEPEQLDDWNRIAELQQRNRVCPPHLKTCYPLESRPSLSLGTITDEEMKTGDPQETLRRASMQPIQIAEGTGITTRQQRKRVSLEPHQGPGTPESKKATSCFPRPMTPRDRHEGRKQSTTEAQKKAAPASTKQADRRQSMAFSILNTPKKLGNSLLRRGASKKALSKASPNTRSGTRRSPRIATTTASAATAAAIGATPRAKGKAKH
Sequence of proteins of HEK293T cells transiently overexpressing caspase-6 (Homo sapiens, UniProt Q9BRX8) (Q9BRX8 whole entry): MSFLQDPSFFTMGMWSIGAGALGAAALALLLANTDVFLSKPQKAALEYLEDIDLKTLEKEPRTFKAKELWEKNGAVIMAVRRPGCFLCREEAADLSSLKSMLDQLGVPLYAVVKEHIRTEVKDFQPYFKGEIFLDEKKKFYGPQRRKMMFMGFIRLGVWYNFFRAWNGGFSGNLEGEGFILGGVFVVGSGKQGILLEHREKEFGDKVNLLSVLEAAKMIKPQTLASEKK

Question: Which results are given for `C#CCOc1ccc([C@@H]2C[C@@H](C(=O)Nc3ccc(OC(F)(F)F)cc3)CN(S(=O)(=O)C=C)C2)cc1` (relative stereo) [13-t]?
Answer: enrich.exp.med ([1]; exp_ref Probe, analysis C6): 0.3873; enrich.exp.med.lin [1]: 1.308; enrich.exp.med.log2 [1]: 0.3873; enrich.exp.med [2]: 0.8492; enrich.exp.med ([3]; Probe, protein TKT P29401): -0.5472; enrich.exp.med.lin ([3]; protein TKT (P29401)): 0.6843; enrich.exp.med.log2 ([3]; protein TKT (P29401)): -0.5472; enrich.exp.med ([4]; exp_ref Probe, analysis C6): 0.6793; enrich.exp.med.lin [4]: 1.601; enrich.exp.med.log2 [4]: 0.6793; enrich.exp.med.lin [5]: 2.408; enrich.exp.med.log2 [5]: 1.268; enrich.exp.med ([5]; exp_ref Probe, analysis C6): 1.268; enrich.exp.med [6]: -0.1545; enrich.exp.med [7]: -0.2955; enrich.exp.med [8]: 1.71; enrich.exp.med ([9]; Probe, protein MCCC1 Q96RQ3): -2.028; enrich.exp.med.lin ([9]; protein MCCC1 (Q96RQ3)): 0.2451; enrich.exp.med.log2 ([9]; protein MCCC1 (Q96RQ3)): -2.028; enrich.exp.med [10]: -8.503; enrich.exp.med [11]: -0.5962
